From PubChem BioAssay (NCI)
“And” between values parts separate entries of the source, which are not always exact repeats. Identical values can stand only once.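 Where inhibition never reached the appropriate level, the endpoint shown equals the highest concentration tested. Otherwise, values were interpolated linearly from a five-concentration, 48-hour dose response in 96-well plates. Here, GI50 denotes the concentration required for 50% inhibition of growth. Definition used: TGI = concentration required for complete inhibition of growth.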

Assays:
Assay in all cases: NCI tumour cell line growth inhibition, 48 h
[1] = system: KM12 colon
[2] = system: SNB-75 CNS
[3] = system: SF-295 CNS
[4] = system: LOX IMVI melanoma
[5] = system: SK-MEL-5 melanoma
[6] = system: HOP-62 NSCLC
[7] = system: ACHN renal
[8] = system: MOLT-4 leukemia
[9] = system: M19-MEL melanoma
[10] = system: XF 498 CNS

| Compound | GI50 [1] | TGI [1] | GI50 [2] | TGI [2] | GI50 [3] [µM] | TGI [3] | GI50 [4] | TGI [4] | GI50 [5] | TGI [5] | GI50 [6] | TGI [6] | GI50 [7] | TGI [7] | GI50 [8] | TGI [8] | TGI [9] [µM] | TGI [10] [µM] |
| --- | --- | --- | --- | --- | --- | --- | --- | --- | --- | --- | --- | --- | --- | --- | --- | --- | --- | --- |
| Cc1cn2c(/C=C3\C(=O)Nc4ccc(O)cc43)c(-c3ccc(Cl)cc3)nc2s1 | 45.4 µM | > 100 µM | 6.27 µM | 23.7 µM | 15.2 | 41.4 µM | 21.3 µM | > 100 µM | 10.1 µM | 25.2 µM | 15.3 µM | 30.3 µM | 17.8 µM | > 100 µM | 9.97 µM | 27.1 µM |  |  |
| COc1ccncc1C#Cc1cncc(C(=O)Nc2ccc(CN3CCN(C)CC3)c(C(F)(F)F)c2)c1 | 0.326 µM | 64.5 µM | 25.9 µM | > 100 µM | 37.3 | > 100 µM | 5.79 µM | 25.7 µM | 39 µM | > 100 µM | 20.9 µM | > 100 µM | 19.3 µM | > 100 µM | 14.5 µM | > 100 µM |  |  |
| CCOC(=O)NC(=O)c1cn(CCOC(=O)NCCCCCCNC(=O)OCCn2cc(C(=O)NC(=O)OCC)c(=O)[nH]c2=O)c(=O)[nH]c1=O |  | > 100 µM |  | > 100 µM |  | > 100 µM |  | > 100 µM |  | > 100 µM |  | > 100 µM |  | > 100 µM |  | > 100 µM | > 100 |  |
| COc1ccc(-c2oc(=O)ccc2-c2cc(OC)c(OC)c(OC)c2)cc1F | 4.52 µM | > 100 µM | 3.33 µM | 36.4 µM | 6.67 | 89.7 µM | 10.9 µM | > 100 µM | 7.46 µM | 58.7 µM | 32.7 µM | > 100 µM | 25.2 µM | > 100 µM | 22.4 µM | > 100 µM |  |  |
| Cc1ccc(Cl)cc1Nc1nc(C(F)(F)F)ccc1C(=O)N1CCN(c2cccc(Cl)c2)CC1 | > 100 µM | > 100 µM | 73.8 µM | > 100 µM | > 100 | > 100 µM | > 100 µM | > 100 µM | > 100 µM | > 100 µM | > 100 µM | > 100 µM | > 100 µM | > 100 µM |  | > 100 µM |  |  |
| COC(=O)[C@]1(C)CCCC2(C)C1CC[C@H]1C=C(C)[C@H]3CCC12C3 (stereo partly specified) |  | > 100 µM |  | > 100 µM |  | > 100 µM |  | > 100 µM |  | > 100 µM |  | > 100 µM |  | > 100 µM |  | > 100 µM |  | > 100 |
| CCCNC(=S)/N=C/c1c(O)c2ccccc2[nH]c1=O |  | > 100 µM |  | > 100 µM |  | > 100 µM |  | > 100 µM |  | > 100 µM |  | > 100 µM |  | > 100 µM |  | > 100 µM |  |  |
| COc1ccc2[nH]cc(-c3nc(-c4c[nH]c5ncccc45)cs3)c2c1 | 3.56 µM | > 100 µM | 2.31 µM | > 100 µM | 2.66 | 6.87 µM | 2.83 µM | > 100 µM | 2.87 µM | > 100 µM | 5.23 µM | > 100 µM | 2.85 µM | > 100 µM | 3.13 µM | > 100 µM |  |  |
| Cc1ccc(-c2nc3ccc([N+](=O)[O-])cc3[nH]2)cc1 |  | > 100 µM |  | > 100 µM |  | > 100 µM |  | > 100 µM |  | > 100 µM |  | > 100 µM |  | > 100 µM |  | > 100 µM |  |  |
| N#Cc1c(-c2ccc(F)cc2)c(-c2ccc(F)cc2)nn(CCO)c1=O |  | 4.49 µM |  | 16.9 µM |  | 37.2 µM |  | > 47.6 µM |  | > 4.64 µM |  | > 76.1 µM |  | > 81.1 µM |  | > 100 µM |  |  |
| O=C(c1ccc(Cl)cc1)c1cnc(Nc2ccccc2Cl)s1 |  | > 78.3 µM |  | 39.2 µM |  | 44.3 µM |  | > 100 µM |  | 55.2 µM |  | 54 µM |  | 35.3 µM |  | > 100 µM | > 100 |  |
| CCOc1ccc(N2C(=O)/C(=C/c3ccc(N(CCC#N)CCC#N)cc3)N=C2c2cc([N+](=O)[O-])ccc2Cl)cc1 |  | 55.3 µM |  | > 100 µM |  | 83.7 µM |  | 62.6 µM |  | 34.6 µM |  | > 100 µM |  | > 100 µM |  | 13.8 µM | 66.5 |  |
| O=c1c2ccccc2sc2cccc(NCCCN3CCN(CCCNc4cccc5sc6ccccc6c(=O)c45)CC3)c12 |  | > 100 µM |  | > 100 µM |  | > 100 µM |  | > 100 µM |  | > 100 µM |  | > 100 µM |  | > 100 µM |  | > 100 µM |  |  |
| Cc1ccc(NC(=O)C2C(=O)N(c3ccc(C)c(C)c3)C(=O)C2N=N)cc1C (stereo unspecified) |  | > 100 µM |  | > 100 µM |  | > 100 µM |  |  |  | > 100 µM |  | > 100 µM |  | > 100 µM |  | > 100 µM | > 100 | > 100 |
| CCCn1c(N)c(C(=O)N/N=C(/C)c2cc3cccc(OC)c3o2)sc1=S | 22.2 µM | > 100 µM | 30.1 µM | 82.3 µM | 0.01 | 18.1 µM | 16.5 µM | > 100 µM | 36.1 µM | > 100 µM | 11.8 µM | 30 µM | 46.8 µM | > 100 µM | 24.2 µM | > 100 µM |  |  |
| C=CC(=O)N1CCC(C2CCNc3c(C(N)=O)c(-c4ccc(Oc5ccccc5)cc4)nn32)CC1 (stereo unspecified) | 22.9 µM | 67 µM | 8.31 µM | 38.6 µM | 17.9 | 70 µM | 13.3 µM | 29.4 µM | 10.6 µM | 22.9 µM | 19.5 µM | 67.7 µM | 2.32 µM | 23.6 µM | 5.36 µM | 31 µM |  |  |
| O=C1[C@@H]2C3c4ccccc4C([C@@H]2C(=O)N1c1ccccc1)S3(=O)=O |  | > 100 µM |  | > 100 µM |  | > 100 µM |  | > 100 µM |  | > 100 µM |  |  |  | > 100 µM |  | > 100 µM | > 100 | > 100 |
| Cc1[nH]c2ccccc2c1-c1cc(-c2cc(-c3c(C)[nH]c4ccccc34)on2)no1 |  | > 100 µM |  | 66.8 µM |  | > 100 µM |  | > 100 µM |  | > 100 µM |  | > 100 µM |  | > 100 µM |  | > 100 µM |  |  |
| CC(=O)c1cc2c(o1)C(=O)c1ccccc1C2=O | 0.543 µM and 0.713 µM | 1.62 µM and 2.09 µM | 0.181 µM and 0.195 µM | 0.328 µM and 0.376 µM | 0.173 | 0.332 µM and 0.317 µM | 0.121 µM and 0.187 µM | 0.323 µM and 0.438 µM | 0.169 µM and 0.173 µM | 0.31 µM and 0.316 µM | 0.163 µM and 0.186 µM | 0.329 µM and 0.35 µM | 0.467 µM and 0.415 µM | 1.6 µM and 1.31 µM | 0.57 µM and 0.865 µM | 1.85 µM and 3.65 µM |  |  |
